Test results reported in patent US8497240B2 (priority 2006, dated 2013).
Where two headings read alike, the source gives them in different places.

Columns and labels:
[1] = format: in vivo, NIH/Swiss mice
Protocol: (§1) In FIG. 3A, bars represent mean±sd, n=6-10. […] Gavage (1.5 g/kg) was given at t=0, Sample was taken at t=30 min. […] In FIG. 3B, points represent mean±sem, n=8-15.
Peptide was injected IP at t=−5 minutes into 4-hour fasted NIH/Swiss female mice. […] In FIG. 17 points represent mean+/−sem. […] Samples were taken at t=60, t=120 and t=180.

[2] = format: in vivo, NIH/Swiss mice; conditions: 80 nmol/kg, AUC240
Protocol: as §1
Points represent mean±sem.

| SMILES | OGTT/GL (%) ([1]; 30 nmol/kg) | Basal Glucose Lowering at Peptide Conc. of 80 nmol/kg [2] | OGTT/GL (%) ([1]; 350 nmol/kg) | OGTT/GL (%) ([1]; 250 nmol/kg) | Basal Gluc. Low. 80 nmol/Kg [2] |
| --- | --- | --- | --- | --- | --- |
| CC[C@H](C)[C@H](NC(=O)[C@H](CO)NC(=O)[C@H](Cc1ccc(O)cc1)NC(=O)[C@H](CC(=O)O)NC(=O)[C@H](CO)NC(=O)[C@@H](NC(=O)[C@H](Cc1ccccc1)NC(=O)[C@@H](NC(=O)CNC(=O)[C@H](CC(=O)O)NC(=O)[C@H](CO)NC(=O)[C@@H](N)Cc1ccc(O)cc1)[C@@H](C)O)[C@@H](C)CC)C(=O)N[C@@H](C)C(=O)N[C@@H](CCSC)C(=O)N[C@@H](CC(=O)O)C(=O)N[C@@H](CCCCN)C(=O)N[C@H](C(=O)N[C@@H](Cc1c[nH]cn1)C(=O)N[C@@H](CCC(N)=O)C(=O)N[C@@H](CCC(N)=O)C(=O)N[C@@H](CC(=O)O)C(=O)N[C@@H](Cc1ccccc1)C(=O)N[C@H](C(=O)N[C@@H](CC(N)=O)C(=O)N[C@@H](Cc1c[nH]c2ccccc12)C(=O)N[C@@H](CC(C)C)C(=O)N[C@@H](CC(C)C)C(=O)N[C@@H](C)C(=O)N[C@@H](CCC(N)=O)C(=O)N[C@@H](CCCCN)C(=O)NCCC(=O)N1CCC[C@H]1C(=O)N[C@@H](CO)C(=O)N[C@@H](CO)C(=O)NCC(=O)N[C@@H](C)C(=O)N1CCC[C@H]1C(=O)N1CCC[C@H]1C(=O)N1CCC[C@H]1C(=O)N[C@@H](CO)C(N)=O)C(C)C)[C@@H](C)CC [Compound 0601GIP4395] | −11, 30% | −0%, AUC240 |  |  |  |
| CC[C@H](C)[C@H](NC(=O)[C@H](CO)NC(=O)[C@H](Cc1ccc(O)cc1)NC(=O)[C@H](CC(=O)O)NC(=O)[C@H](CO)NC(=O)[C@@H](NC(=O)[C@H](Cc1ccccc1)NC(=O)[C@@H](NC(=O)CNC(=O)[C@H](CCC(=O)O)NC(=O)[C@@H](C)NC(=O)[C@H](Cc1ccc(O)cc1)NC)[C@@H](C)O)[C@@H](C)CC)C(=O)N[C@@H](C)C(=O)N[C@@H](CCSC)C(=O)N[C@@H](CC(=O)O)C(=O)N[C@@H](CCCCN)C(=O)N[C@H](C(=O)N[C@@H](Cc1c[nH]cn1)C(=O)N[C@@H](CCC(N)=O)C(=O)N[C@@H](CCC(N)=O)C(=O)N[C@@H](CC(=O)O)C(=O)N[C@@H](Cc1ccccc1)C(=O)N[C@H](C(=O)N[C@@H](CC(N)=O)C(=O)N[C@@H](Cc1c[nH]c2ccccc12)C(=O)N[C@@H](CC(C)C)C(=O)N[C@@H](CC(C)C)C(=O)N[C@@H](C)C(=O)N[C@@H](CCC(N)=O)C(=O)N[C@@H](CCCCN)C(=O)N1CCC[C@H]1C(=O)N[C@@H](CO)C(=O)N[C@@H](CO)C(=O)NCC(=O)N[C@@H](C)C(=O)N1CCC[C@H]1C(=O)N1CCC[C@H]1C(=O)N1CCC[C@H]1C(=O)N[C@@H](CO)C(N)=O)C(C)C)[C@@H](C)CC [Compound 0601GIP4238] |  | −6%, AUC240 | −25% |  |  |
| CC[C@H](C)[C@H](NC(=O)[C@H](CO)NC(=O)[C@H](Cc1ccc(O)cc1)NC(=O)[C@H](CC(=O)O)NC(=O)[C@H](CO)NC(=O)[C@@H](NC(=O)[C@H](Cc1ccccc1)NC(=O)[C@@H](NC(=O)CNC(=O)[C@H](CCC(=O)O)NC(=O)[C@@H](C)NC(=O)[C@@H](N)Cc1ccc(O)cc1)[C@@H](C)O)[C@@H](C)CC)C(=O)N[C@@H](C)C(=O)N[C@@H](CCSC)C(=O)N[C@@H](CC(=O)O)C(=O)N[C@@H](CCCCN)C(=O)N[C@H](C(=O)N[C@@H](Cc1c[nH]cn1)C(=O)N[C@@H](CCC(N)=O)C(=O)N[C@@H](CCC(N)=O)C(=O)N[C@@H](CC(=O)O)C(=O)N[C@@H](Cc1ccccc1)C(=O)N[C@H](C(=O)N[C@@H](CC(N)=O)C(=O)N[C@@H](Cc1c[nH]c2ccccc12)C(=O)N[C@@H](CC(C)C)C(=O)N[C@@H](CC(C)C)C(=O)N[C@@H](C)C(=O)N[C@@H](CCC(N)=O)C(=O)N[C@@H](CCCCN)C(=O)N[C@H](C(=O)N[C@@H](CO)C(=O)N1CCC[C@H]1C(=O)N1CCC[C@H]1C(=O)N1CCC[C@H]1C(N)=O)[C@@H](C)O)C(C)C)[C@@H](C)CC [0601GIP4345] | −14 @ 30 nmol/kg % | −11%, AUC240 |  | −25 @ 250 nmol/kg, % |  |
| CC[C@H](C)[C@H](NC(=O)[C@H](CO)NC(=O)[C@H](Cc1ccc(O)cc1)NC(=O)[C@H](CC(=O)O)NC(=O)[C@H](CO)NC(=O)[C@@H](NC(=O)[C@H](Cc1ccccc1)NC(=O)[C@@H](NC(=O)CNC(=O)[C@H](CCC(=O)O)NC(=O)[C@@H](C)NC(=O)[C@@H](N)Cc1ccc(O)cc1)[C@@H](C)O)[C@@H](C)CC)C(=O)N[C@@H](C)C(=O)N[C@@H](CCSC)C(=O)N[C@@H](CC(=O)O)C(=O)N[C@@H](CCCCN)C(=O)N[C@H](C(=O)N[C@@H](Cc1c[nH]cn1)C(=O)N[C@@H](CCC(N)=O)C(=O)N[C@@H](CCC(N)=O)C(=O)N[C@@H](CC(=O)O)C(=O)N[C@@H](Cc1ccccc1)C(=O)N[C@H](C(=O)N[C@@H](CCC(N)=O)C(=O)N[C@@H](Cc1c[nH]c2ccccc12)C(=O)N[C@@H](CC(C)C)C(=O)N[C@@H](CC(C)C)C(=O)N[C@@H](C)C(=O)N[C@@H](CCC(N)=O)C(=O)N[C@@H](CCCCN)C(=O)N1CCC[C@H]1C(=O)N[C@@H](CO)C(=O)N[C@@H](CO)C(=O)NCC(=O)N[C@@H](C)C(=O)N1CCC[C@H]1C(=O)N1CCC[C@H]1C(=O)N1CCC[C@H]1C(=O)N[C@@H](CO)C(N)=O)C(C)C)[C@@H](C)CC [Compound 0601GIP4846] | −25, % | −6%, |  |  |  |
| CC[C@H](C)[C@H](NC(=O)[C@H](CO)NC(=O)[C@H](Cc1ccc(O)cc1)NC(=O)[C@H](CC(=O)O)NC(=O)[C@H](CO)NC(=O)[C@@H](NC(=O)[C@H](Cc1ccccc1)NC(=O)[C@@H](NC(=O)CNC(=O)[C@H](CCC(=O)O)NC(=O)[C@@H](C)NC(=O)[C@@H](N)Cc1ccc(O)cc1)[C@@H](C)O)[C@@H](C)CC)C(=O)N[C@@H](C)C(=O)N[C@@H](CCSC)C(=O)N[C@@H](CC(=O)O)C(=O)N[C@@H](CCCCN)C(=O)N[C@H](C(=O)N[C@@H](Cc1c[nH]cn1)C(=O)N[C@@H](CCC(N)=O)C(=O)N[C@@H](CCC(N)=O)C(=O)N[C@@H](CC(=O)O)C(=O)N[C@@H](Cc1ccccc1)C(=O)N[C@H](C(=O)N[C@@H](CC(N)=O)C(=O)N[C@@H](Cc1c[nH]c2ccccc12)C(=O)N[C@@H](CC(C)C)C(=O)N[C@@H](CC(C)C)C(=O)N[C@@H](C)C(=O)N[C@@H](CCC(N)=O)C(=O)N[C@@H](CCCCN)C(=O)N1CCC[C@H]1C(=O)N[C@@H](CCCCN)C(=O)N[C@@H](CCCCN)C(=O)N[C@H](C(=O)N[C@@H](CCCNC(=N)N)C(=O)N[C@@H](C)C(=O)N[C@@H](CO)C(N)=O)[C@@H](C)CC)C(C)C)[C@@H](C)CC [Compound 0601GIP4818] | −23, % |  |  |  | −9%, |
